In the NIST ThermoML archive (doi:10.1016/j.jct.2016.02.009):

Assay: molar heat capacity at constant pressure
Conditions: 101.33 kPa, Crystal 2, Small (less than 1 g) adiabatic calorimetry

CCCCCCCCCCCCCCn1cc[n+](C)c1.O=S(=O)([N-]S(=O)(=O)C(F)(F)F)C(F)(F)F
Conditions	molar heat capacity at constant pressure [J/K/mol]
4.89 K	3.21
5 K	3.43
5.1 K	3.64
5.39 K	4.23
5.69 K	4.88
6 K	5.63
6.34 K	6.47
6.73 K	7.47
7.11 K	8.54
7.5 K	9.67
7.9 K	10.86
8.3 K	12.12
8.7 K	13.43
9.11 K	14.79
9.52 K	16.21
9.93 K	17.69
10 K	17.94
10.45 K	19.63
11.1 K	22.1
11.75 K	24.67
12.39 K	27.32
13.04 K	30.06
13.7 K	32.85
14.36 K	35.72
15 K	38.56
15.02 K	38.63
15.8 K	42.14
16.7 K	46.22
17.61 K	50.37
18.51 K	54.57
19.42 K	58.74
20 K	61.41
20.33 K	62.84
21.54 K	68.49
23.07 K	75.56
24.61 K	82.47
25 K	84.18
26.14 K	89.18
27.68 K	95.96
29.23 K	102.6
30 K	105.9
30.94 K	110.1
32.82 K	117.9
34.72 K	125.4
35 K	126.4
36.61 K	132.8
38.5 K	140.1
40 K	145.8
40.39 K	147.2
42.38 K	154.5
44.49 K	162.2
45 K	164.1
46.6 K	169.8
48.71 K	177.1
50 K	181.5
50.83 K	184.3
52.96 K	191.2
55.08 K	198
57.2 K	204.8
59.33 K	211.5
60 K	213.6
61.45 K	218
63.59 K	224.5
65.72 K	230.7
67.86 K	236.8
70 K	242.6
70.01 K	242.5
72.16 K	248.4
74.3 K	254.1
76.46 K	260.1
78.61 K	266.1
80 K	269.2
80.77 K	271.8
81.2 K	272.4
82.94 K	276.6
83.19 K	277.4
85.13 K	281.8
85.17 K	281.5
87.16 K	286.5
89.15 K	291.4
90 K	293.7
91.14 K	296.2
93.13 K	301
95.13 K	305.5
97.13 K	310.1
99.14 K	314.6
100 K	316.7
101.15 K	319.3
103.16 K	324
105.16 K	328.1
107.17 K	332.6
109.18 K	336.8
110 K	338.4
111.2 K	340.6
113.23 K	345
115.25 K	349.2
117.27 K	353.4
119.3 K	357.4
120 K	358.8
121.32 K	361.5
123.35 K	365.5
124.9 K	368.4
125.83 K	370.4
127.42 K	373.3
128.64 K	376
129.89 K	378.2
130 K	378.6
131.38 K	381.2
132.35 K	383
134.13 K	386.5
134.81 K	387.8
136.88 K	391.8
137.28 K	392.5
139.62 K	397
139.75 K	397.2
140 K	397.8
142.22 K	402.1
142.37 K	402.3
144.69 K	406.6
145.12 K	407.7
147.16 K	411.2
147.86 K	412.6
149.63 K	415.9
150 K	416.6
150.61 K	418
152.1 K	420.5
153.36 K	423.1
154.57 K	425.1
156.12 K	428.1
157.05 K	429.7
158.87 K	433.3
159.52 K	434.5
160 K	435.3
161.63 K	438.6
161.99 K	439.1
164.38 K	443.7
164.46 K	443.6
166.93 K	448.2
167.13 K	448.7
169.4 K	453
169.88 K	453.9
170 K	454.1
171.87 K	457.5
172.63 K	459.1
174.33 K	462.3
175.38 K	464.4
176.79 K	467
178.12 K	469.7
179.25 K	471.5
